System: HCT116 MTAP-deleted cell lines
Experiment: Cell viability assay (CellTiter-Glo, 7 days), HCT116 MTAP-deleted
Type: cell-based
Details: Homo sapiens, HCT-116; cell viability assay, HCT116 MTAP-deleted; class symbols; read-out: CC50
How it was run: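 PRMT5 inhibitors were serially diluted in DMSO and acoustically spotted as dose-response series into plates before cell seeding. Cells were grown with compound for 7 days at 37 °C, 5% CO2, 90% humidity, then viability was read by CellTiter-Glo luminescence and reported as CC50.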

`Nc1nc2cc(F)c(C(=O)N(Cc3ccc(C(F)(F)F)cc3F)c3cnn4ccccc34)cc2n2cncc12` [Ff-424, 4-amino-7-fluoro-N-[[2-fluoro-4-(trifluoromethyl)phenyl]methyl]-N-pyrazolo[1,5-a]pyridin-3-yl-imidazo[1,5-a]quinoxaline-8-carboxamide] gave a CC50 of under 100 nM.

For `CN(C(=O)c1cc2c(cc1F)nc(N)c1cncn12)C1CCCc2cc(Cl)ccc21` (centres unmarked) [Ff-425, 4-amino-N-(6-chloro-1,2,3,4-tetrahydronaphthalen-1-yl)-7-fluoro-N-methylimidazo[1,5-a]quinoxaline-8-carboxamide], the CC50 was 100 to 1000 nM.

Molecule `CN(C(=O)c1cc2c(cc1F)nc(N)c1cncn12)C1CCc2sccc21` (centres unmarked) [Ff-426, 4-amino-N-(5,6-dihydro-4H-cyclopenta[b]thiophen-4-yl)-7-fluoro-N-methyl-imidazo[1,5-a]quinoxaline-8-carboxamide] has a CC50 of 100 to 1000 nM.

Molecule `CN(Cc1ccc([C@@H]2C[C@H]2c2ccn(C(F)F)n2)cn1)C(=O)c1cc2c(cc1F)nc(N)c1cncn12` [Ff-428, 4-amino-N-[[5-[(1R,2R)-2-[1-(difluoromethyl)pyrazol-3-yl]cyclopropyl]-2-pyridyl]methyl]-7-fluoro-N-methyl-imidazo[1,5-a]quinoxaline-8-carboxamide] has a CC50 of 100 to 1000 nM.

With `CN(Cc1ccc([C@@H]2C[C@H]2c2ccn(C(F)F)n2)cc1F)C(=O)c1cc2c(cc1F)nc(N)c1cncn12` [Ff-429, 4-amino-N-[[4-[(1R,2R)-2-[1-(difluoromethyl)pyrazol-3-yl]cyclopropyl]-2-fluoro-phenyl]methyl]-7-fluoro-N-methyl-imidazo[1,5-a]quinoxaline-8-carboxamide] the CC50 was under 100 nM.

With `CN(C(=O)c1cc2c(cc1F)nc(N)c1cncn12)C1CCCc2cc(C(F)(F)F)ccc21` (centres unmarked) [Ff-430, 4-amino-7-fluoro-N-methyl-N-[6-(trifluoromethyl)tetralin-1-yl]imidazo[1,5-a]quinoxaline-8-carboxamide] the CC50 was 100 to 1000 nM.

Work on `COC[C@H](c1ccc(C(F)(F)F)cc1)N(C)C(=O)c1cc2c(cc1F)nc(N)c1cncn12` [Ff-431, 4-amino-7-fluoro-N-[(1S)-2-methoxy-1-[4-(trifluoromethyl)phenyl]ethyl]-N-methyl-imidazo[1,5-a]quinoxaline-8-carboxamide] yielded a CC50 of 100 to 1000 nM.

In the case of `Nc1nc2cc(F)c(C(=O)N3CCCCC4Oc5cc(C(F)(F)F)ccc5C43)cc2n2cncc12` (centres unmarked) [Ff-432, (4-amino-7-fluoro-imidazo[1,5-a]quinoxalin-8-yl)-[8-(trifluoromethyl)-2,3,4,5,5a,10b-hexahydrobenzofuro[3,2-b]azepin-1-yl]methanone], the CC50 was under 100 nM.

Molecule `CN(Cc1ccc(OCC(F)(F)F)cc1)C(=O)c1cc2c(cc1F)nc(N)c1cncn12` [Ff-433, 4-amino-7-fluoro-N-methyl-N-[[4-(2,2,2-trifluoroethoxy)phenyl]methyl]imidazo[1,5-a]quinoxaline-8-carboxamide] has a CC50 of 100 to 1000 nM.

With `CN(C(=O)c1cc2c(cc1F)nc(N)c1cncn12)[C@@H]1CCc2cc([C@@H]3C[C@H]3C#N)ccc21` [Ff-434, Trans-4-amino-N-[(1R)-5-(2-cyanocyclopropyl)indan-1-yl]-7-fluoro-N-methyl-imidazo[1,5-a]quinoxaline-8-carboxamide] the CC50 was under 100 nM.

Molecule `Cc1ncn2c1c(N)nc1cnc(C(=O)N(C)C3CCc4cc(C(F)(F)F)ccc43)cc12` (centres unmarked) [Ff-435, 7-amino-N,5-dimethyl-N-[5-(trifluoromethyl)indan-1-yl]-2,4,8,11-tetrazatricyclo[7.4.0.02,6]trideca-1(13),3,5,7,9,11-hexaene-12-carboxamide] has a CC50 of 100 to 1000 nM.

`CN(C(=O)c1cc2c(cn1)nc(N)c1cncn12)C1CCc2cc(C(F)(F)F)ccc21` (centres unmarked) [Ff-436, 7-amino-N-methyl-N-[5-(trifluoromethyl)indan-1-yl]-2,4,8,11-tetrazatricyclo[7.4.0.02,6]trideca-1(13),3,5,7,9,11-hexaene-12-carboxamide] was tested, and the CC50 was under 100 nM.

`CN(C(=O)c1cc2c(cc1F)nc(N)c1cncn12)[C@@H]1COc2cc(C#CC3(C(F)F)CCOCC3)ccc21` [Ff-437, (S)-4-amino-N-(6-((4-(difluoromethyl)tetrahydro-2H-pyran-4-yl)ethynyl)-2,3-dihydrobenzofuran-3-yl)-7-fluoro-N-methylimidazo[1,5-a]quinoxaline-8-carboxamide] showed a CC50 of under 100 nM.

`CN(C(=O)c1cc2c(cc1F)nc(N)c1cncn12)[C@@H]1COc2cc([C@@H]3C[C@H]3C#N)c(F)cc21` [Ff-438, Trans-4-amino-N-[(3S)-6-(2-cyanocyclopropyl)-5-fluoro-2,3-dihydrobenzofuran-3-yl]-7-fluoro-N-methyl-imidazo[1,5-a]quinoxaline-8-carboxamide] showed a CC50 of under 100 nM.

In the case of `CN(C(=O)c1cc2c(cc1F)nc(N)c1cncn12)[C@@H]1COc2cc(C#CC(C)(C)C#N)ccc21` [Ff-439, 4-amino-N-[(3S)-6-(3-cyano-3-methyl-but-1-ynyl)-2,3-dihydrobenzofuran-3-yl]-7-fluoro-N-methyl-imidazo[1,5-a]quinoxaline-8-carboxamide], the CC50 was under 100 nM.

`CN(C(=O)c1cc2c(cc1F)nc(N)c1cncn12)[C@@H]1COc2cc(C#CC3(F)COC3)ccc21` [Ff-440, 4-amino-7-fluoro-N-[(3S)-6-[2-(3-fluorooxetan-3-yl)ethynyl]-2,3-dihydrobenzofuran-3-yl]-N-methyl-imidazo[1,5-a]quinoxaline-8-carboxamide] was tested, and the CC50 was under 100 nM.

Work on `CN(C(=O)c1cc2c(cc1F)nc(N)c1cncn12)[C@@H]1COc2cc(C#CC3(CC#N)CC3)ccc21` [Ff-441, 4-amino-N-[(3S)-6-[2-[1-(cyanomethyl)cyclopropyl]ethynyl]-2,3-dihydrobenzofuran-3-yl]-7-fluoro-N-methyl-imidazo[1,5-a]quinoxaline-8-carboxamide] yielded a CC50 of under 100 nM.

`CN(C(=O)c1cc2c(cc1F)nc(N)c1cncn12)[C@@H]1COc2cc(C#CC(C)(C)O)ccc21` [Ff-442, 4-amino-7-fluoro-N-[(3S)-6-(3-hydroxy-3-methyl-but-1-ynyl)-2,3-dihydrobenzofuran-3-yl]-N-methyl-imidazo[1,5-a]quinoxaline-8-carboxamide] was tested, and the CC50 was under 100 nM.

Molecule `CN(C(=O)c1cc2c(cc1Cl)nc(N)c1cncn12)[C@@H]1COc2cc([C@@H]3C[C@H]3C#N)c(F)cc21` [Ff-443, Trans-4-amino-7-chloro-N-[(3S)-6-(2-cyanocyclopropyl)-5-fluoro-2,3-dihydrobenzofuran-3-yl]-N-methyl-imidazo[1,5-a]quinoxaline-8-carboxamide] has a CC50 of under 100 nM.

For `CN(C(=O)c1cc2c(cc1F)nc(N)c1cncn12)[C@@H]1COc2cc(C34CC(C3)C4)ccc21` [Ff-444, 4-amino-N-[(3S)-6-(1-bicyclo[1.1.1]pentanyl)-2,3-dihydrobenzofuran-3-yl]-7-fluoro-N-methyl-imidazo[1,5-a]quinoxaline-8-carboxamide], the CC50 was under 100 nM.

In the case of `CN(C(=O)c1cc2c(cc1F)nc(N)c1cncn12)[C@@H]1COc2cc(C#CC3(C#N)CC3)ccc21` [Ff-445, 4-amino-N-[(3S)-6-[2-(1-cyanocyclopropyl)ethynyl]-2,3-dihydrobenzofuran-3-yl]-7-fluoro-N-methyl-imidazo[1,5-a]quinoxaline-8-carboxamide], the CC50 was under 100 nM.

Molecule `CN(C(=O)c1cc2c(cc1F)nc(N)c1cncn12)[C@@H]1COc2cc(C#CC3(F)CCOC3)ccc21` (stereo partly drawn) [Ff-446, 4-amino-7-fluoro-N-[(3S)-6-[2-(3-fluorotetrahydrofuran-3-yl)ethynyl]-2,3-dihydrobenzofuran-3-yl]-N-methyl-imidazo[1,5-a]quinoxaline-8-carboxamide] has a CC50 of under 100 nM.

`CN(C(=O)c1cc2c(cc1F)nc(N)c1cncn12)[C@@H]1COc2cc(C#CC(C)(C)F)ccc21` [Ff-447, 4-amino-7-fluoro-N-[(3S)-6-(3-fluoro-3-methyl-but-1-ynyl)-2,3-dihydrobenzofuran-3-yl]-N-methyl-imidazo[1,5-a]quinoxaline-8-carboxamide] showed a CC50 of under 100 nM.

Molecule `N#C[C@@H]1C[C@H]1c1ccc2c(c1)C[C@H]1OCCN(C(=O)c3cc4c(cc3F)nc(N)c3cncn34)[C@@H]21` [Ff-448, Trans-2-[(4aS,9aR)-4-(4-amino-7-fluoro-imidazo[1,5-a]quinoxaline-8-carbonyl)-3,4a,9,9a-tetrahydro-2H-indeno[2,1-b][1,4]oxazin-7-yl]cyclopropanecarbonitrile] has a CC50 of under 100 nM.

With `CN(C(=O)c1cc2c(cn1)nc(N)c1cncn12)[C@@H]1COc2cc(C34CC(C3)C4)ccc21` [Ff-449, 7-amino-N-[(3S)-6-(1-bicyclo[1.1.1]pentanyl)-2,3-dihydrobenzofuran-3-yl]-N-methyl-2,4,8,11-tetrazatricyclo[7.4.0.02,6]trideca-1(9),3,5,7,10,12-hexaene-12-carboxamide] the CC50 was under 100 nM.

`Cc1ncn2c1c(N)nc1cc(F)c(C(=O)N(C)[C@@H]3COc4cc([C@@H]5C[C@H]5C#N)c(F)cc43)cc12` [Ff-450, Trans-4-amino-N-[(3S)-6-(2-cyanocyclopropyl)-5-fluoro-2,3-dihydrobenzofuran-3-yl]-7-fluoro-N,3-dimethyl-imidazo[1,5-a]quinoxaline-8-carboxamide] showed a CC50 of under 100 nM.

`CN(C(=O)c1cc2c(cn1)nc(N)c1cncn12)[C@@H]1COc2cc(C34CC(C(F)F)(C3)C4)ccc21` [Ff-451, (S)-4-amino-N-(6-(3-(difluoromethyl)bicyclo[1.1.1]pentan-1-yl)-2,3-dihydrobenzofuran-3-yl)-N-methylimidazo[1,5-a]pyrido[3,4-e]pyrazine-8-carboxamide] was tested, and the CC50 was under 100 nM.

`Cc1ncn2c1c(N)nc1cnc(C(=O)N(C)[C@@H]3COc4cc(C56CC(C5)C6)ccc43)cc12` [Ff-452, (S)-4-amino-N-(6-(bicyclo[1.1.1]pentan-1-yl)-2,3-dihydrobenzofuran-3-yl)-N,3-dimethylimidazo[1,5-a]pyrido[3,4-e]pyrazine-8-carboxamide] showed a CC50 of under 100 nM.

`CN(C(=O)c1cc2c(cc1F)nc(N)c1cncn12)[C@@H]1COc2cc(C34CC(F)(C3)C4)ccc21` [Ff-453, 4-amino-7-fluoro-N-[(3S)-6-(3-fluoro-1-bicyclo[1.1.1]pentanyl)-2,3-dihydrobenzofuran-3-yl]-N-methyl-imidazo[1,5-a]quinoxaline-8-carboxamide] was tested, and the CC50 was under 100 nM.

Source: patent publication US12448388B2, “PRMT5 inhibitors and uses thereof” (Gilead Sciences, Inc., priority 2023, dated 2025)
